From patent US20260132132A1, “3A,4,5,6-TETRAHYDRO-1 H-PYRAZOLO[3,4-C]PYRIDIN-7(7AH)-ONE DERIVATIVES AS FACTOR XIIA INHIBITORS” (KALVISTA PHARMACEUTICALS LIMITED, priority 2022, published 2026)

What was measured:
[1] = biological target: T1, Human Factor XIIa (hFXIIa) (Homo sapiens, UniProt P00748); experiment: Determination of Human Factor XIIa (hFXIIa) inhibition, fluorogenic substrate IC50 assay; assay type: biochemical; conditions: fluorogenic substrate H-DPro-Phe-Arg-AFC at Km, 25° C., read-out: Human FXIIa IC50
T1 construct: purchased Enzyme Research Laboratories
T1 sequence (P00748 373-615 limits assumed): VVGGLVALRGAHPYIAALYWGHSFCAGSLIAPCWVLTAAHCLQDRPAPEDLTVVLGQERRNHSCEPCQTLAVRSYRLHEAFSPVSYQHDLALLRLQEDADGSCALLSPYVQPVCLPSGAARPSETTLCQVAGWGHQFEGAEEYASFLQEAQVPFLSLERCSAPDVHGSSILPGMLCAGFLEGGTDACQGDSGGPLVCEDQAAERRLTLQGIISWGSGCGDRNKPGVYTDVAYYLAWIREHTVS
T1 sequence (P00748 20-372 partner limits assumed): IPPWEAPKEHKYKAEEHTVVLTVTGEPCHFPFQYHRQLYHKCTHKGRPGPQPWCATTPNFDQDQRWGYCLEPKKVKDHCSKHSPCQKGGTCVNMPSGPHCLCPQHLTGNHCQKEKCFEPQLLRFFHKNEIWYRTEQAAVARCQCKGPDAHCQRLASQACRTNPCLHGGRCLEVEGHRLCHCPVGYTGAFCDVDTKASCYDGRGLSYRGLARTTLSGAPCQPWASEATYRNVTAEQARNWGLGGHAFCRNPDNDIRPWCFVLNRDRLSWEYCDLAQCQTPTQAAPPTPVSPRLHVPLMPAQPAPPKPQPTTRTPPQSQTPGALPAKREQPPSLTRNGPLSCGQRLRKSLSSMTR
Description: Determination of Human Factor XIIa (hFXIIa) inhibition
The Km for the cleavage of the substrate by hFXIIa was determined by standard transformation of the Michaelis-Menten equation, with subsequent inhibition assays performed at substrate Km concentration.

[2] = biological target: FXa (Homo sapiens, UniProt P00742); experiment: Related protease inhibition: FXa, fluorogenic substrate; assay type: biochemical; conditions: fluorogenic substrate at Km, 25° C.; H1-H3 = % activity at 40 μM
Description: Human serine protease enzyme Plasma Kallikrein, KLK1, FXa, Plasmin, Thrombin and Trypsin were assayed for enzymatic activity using an appropriate fluorogenic substrate at Km concentration, FXIa at fixed substrate concentration of 100 μM and various concentrations of the test compound.

Chain of FXa (P00742 235-488 limits assumed): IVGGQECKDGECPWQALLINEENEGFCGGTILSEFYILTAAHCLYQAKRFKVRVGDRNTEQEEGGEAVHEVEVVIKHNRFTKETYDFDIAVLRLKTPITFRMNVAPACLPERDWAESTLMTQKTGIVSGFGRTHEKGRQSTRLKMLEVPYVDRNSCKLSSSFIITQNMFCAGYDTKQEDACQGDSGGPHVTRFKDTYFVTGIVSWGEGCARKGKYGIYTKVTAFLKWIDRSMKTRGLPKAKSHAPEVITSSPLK
Chain of FXa (P00742 41-179 partner limits assumed): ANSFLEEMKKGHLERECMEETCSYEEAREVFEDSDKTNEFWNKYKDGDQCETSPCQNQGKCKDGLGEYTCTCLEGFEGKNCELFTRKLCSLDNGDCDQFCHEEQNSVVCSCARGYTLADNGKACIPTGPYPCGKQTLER

Row | Structure (SMILES) | IC50 [1] [µM] | IC50 [2] [µM]
1 | Cc1ccncc1CNC(=O)c1nn(-c2cccc(Cl)c2)c2c1CCN(c1ccc3c(c1)C(=O)N(CCO)CC3)C2=O [Example 1236, 1-(3-chlorophenyl)-6-(2-(2-hydroxyethyl)-1-oxo-1,2,3,4-tetrahydroisoquinolin-7-yl)-N-((4-methylpyridin-3-yl)methyl)-7-oxo-4,5,6,7-tetrahydro-1H-pyrazolo[3,4-c]pyridine-3-carboxamide] | 0.01 to 0.1 | > 40
2 | Cc1ccncc1CNC(=O)c1nn(-c2cccc(Cl)c2)c2c1CCN(c1cc3c(cc1F)CCN(CCO)C3)C2=O [Example 1134, 1-(3-Chlorophenyl)-6-(6-fluoro-2-(2-hydroxyethyl)-1,2,3,4-tetrahydroisoquinolin-7-yl)-N-((4-methylpyridin-3-yl)methyl)-7-oxo-4,5,6,7-tetrahydro-1H-pyrazolo[3,4-c]pyridine-3-carboxamide] | 0.01 to 0.1 | 10 to 40
3 | Cc1ncc(CNC(=O)c2nn(-c3cccc(Cl)c3)c3c2CCN(c2ccc4c(c2)C(=O)N(C)CC4)C3=O)o1 [Example 1194, 1-(3-chlorophenyl)-6-(2-methyl-1-oxo-1,2,3,4-tetrahydroisoquinolin-7-yl)-N-((2-methyloxazol-5-yl)methyl)-7-oxo-4,5,6,7-tetrahydro-1H-pyrazolo[3,4-c]pyridine-3-carboxamide] | 0.3 to 1 | > 40
4 | Cc1ccncc1CNC(=O)c1nn(-c2cccc(Cl)c2)c2c1CCN(c1ccc3c(c1)CN(CCO)C[C@@H]3C)C2=O [Example 1148, (R)-1-(3-Chlorophenyl)-6-(2-(2-hydroxyethyl)-4-methyl-1,2,3,4-tetrahydroisoquinolin-7-yl)-N-((4-methylpyridin-3-yl)methyl)-7-oxo-4,5,6,7-tetrahydro-1H-pyrazolo[3,4-c]pyridine-3-carboxamide] | 0.1 to 0.3 | 10 to 40
5 | Cc1ccncc1C(C)NC(=O)c1nn(-c2cccc(Cl)c2)c2c1CCN(c1ccc3c(c1)C(=O)N(CCO)CC3)C2=O (stereo not shown) [Example 1327, 1-(3-chlorophenyl)-6-(2-(2-hydroxyethyl)-1-oxo-1,2,3,4-tetrahydroisoquinolin-7-yl)-N-(1-(4-methylpyridin-3-yl)ethyl)-7-oxo-4,5,6,7-tetrahydro-1H-pyrazolo[3,4-c]pyridine-3-carboxamide] | 0.1 to 0.3 | > 40
6 | CN1CCc2ccc(N3CCc4c(C(=O)NCc5cccnn5)nn(-c5cccc(Cl)c5)c4C3=O)cc2C1=O [Example 1202, 1-(3-chlorophenyl)-6-(2-methyl-1-oxo-1,2,3,4-tetrahydroisoquinolin-7-yl)-7-oxo-N-(pyridazin-3-ylmethyl)-4,5,6,7-tetrahydro-1H-pyrazolo[3,4-c]pyridine-3-carboxamide] | 0.3 to 1 | > 40
7 | O=C(N[C@H](CO)c1ccccc1)c1nn(-c2cccc(Cl)c2)c2c1CCN(c1cccc(CN3CCCCC3)c1)C2=O [Example 1008, (S)-1-(3-chlorophenyl)-N-(2-hydroxy-1-phenylethyl)-7-oxo-6-(3-(piperidin-1-ylmethyl)phenyl)-4,5,6,7-tetrahydro-1H-pyrazolo[3,4-c]pyridine-3-carboxamide] | 0.3 to 1 | > 100
8 | O=C(NCc1ccncc1F)c1nn(-c2cccc(Cl)c2)c2c1CCN(c1ccc3c(c1)CN(CCO)CC3)C2=O [Example 1161, 1-(3-chlorophenyl)-N-((3-fluoropyridin-4-yl)methyl)-6-(2-(2-hydroxyethyl)-1,2,3,4-tetrahydroisoquinolin-7-yl)-7-oxo-4,5,6,7-tetrahydro-1H-pyrazolo[3,4-c]pyridine-3-carboxamide] | 0.01 to 0.1 | > 40
9 | CCN1Cc2cc(N3CCc4c(C(=O)NCC5CC5)nn(-c5cccc(Cl)c5)c4C3=O)ccc2[C@@H](C)C1 [Example 1153, (R)-1-(3-chlorophenyl)-N-(cyclopropylmethyl)-6-(2-ethyl-4-methyl-1,2,3,4-tetrahydroisoquinolin-7-yl)-7-oxo-4,5,6,7-tetrahydro-1H-pyrazolo[3,4-c]pyridine-3-carboxamide] | 0.3 to 1 | 10 to 40
10 | Cc1ccnnc1CNC(=O)c1nn(-c2cccc(Cl)c2)c2c1CCN(c1ccc3c(c1)C(=O)N(C)CC3)C2=O [Example 1310, 1-(3-chlorophenyl)-6-(2-methyl-1-oxo-1,2,3,4-tetrahydroisoquinolin-7-yl)-N-((4-methylpyridazin-3-yl)methyl)-7-oxo-4,5,6,7-tetrahydro-1H-pyrazolo[3,4-c]pyridine-3-carboxamide] | 0.3 to 1 | 10 to 40
11 | Cc1nc(CNC(=O)c2nn(-c3cccc(Cl)c3)c3c2CCN(c2ccc4c(c2)C(=O)N(C)CC4)C3=O)n[nH]1 [Example 1247, 1-(3-chlorophenyl)-6-(2-methyl-1-oxo-1,2,3,4-tetrahydroisoquinolin-7-yl)-N-((5-methyl-1H-1,2,4-triazol-3-yl)methyl)-7-oxo-4,5,6,7-tetrahydro-1H-pyrazolo[3,4-c]pyridine-3-carboxamide] | 0.1 to 0.3 | > 40
12 | CN1CCc2ccc(N3CCc4c(C(=O)NC(CO)C5CCOC5)nn(-c5cccc(Cl)c5)c4C3=O)cc2C1=O (stereo not shown) [Example 1180, 1-(3-chlorophenyl)-N-(2-hydroxy-1-(tetrahydrofuran-3-yl)ethyl)-6-(2-methyl-1-oxo-1,2,3,4-tetrahydroisoquinolin-7-yl)-7-oxo-4,5,6,7-tetrahydro-1H-pyrazolo[3,4-c]pyridine-3-carboxamide] | 0.3 to 1 | > 40

Other lines, results leading:

Row | IC50 [1] [µM] | IC50 [2] [µM] | Structure (SMILES)
13 | 3 to 10 | > 40 | Cc1cc(CNC(=O)c2nn(-c3cccc(Cl)c3)c3c2CN(c2ccc4c(c2)CN(CCO)CC4)C3=O)nn1C [Example 4001, 1-(3-Chlorophenyl)-N-[(1,5-dimethylpyrazol-3-yl)methyl]-5-[2-(2-hydroxyethyl)-3,4-dihydro-1H-isoquinolin-7-yl]-6-oxo-4H-pyrrolo[3,4-c]pyrazole-3-carboxamide]
14 | 0.3 to 1 | 3 to 10 | Cc1nc2c(CNS(=O)(=O)C3CC3)nn(-c3cccc(Cl)c3)c2c(=O)n1-c1ccc2c(c1)CN(CCO)CC2 [Example 3007, N-[[1-(3-Chlorophenyl)-6-[2-(2-hydroxyethyl)-3,4-dihydro-1H-isoquinolin-7-yl]-5-methyl-7-oxopyrazolo[4,3-d]pyrimidin-3-yl]methyl]cyclopropanesulfonamide]
15 | 0.3 to 1 | 3 to 10 | CN1CCc2ccc(N3CCc4c(C(=O)NO)nn(-c5cccc(Cl)c5)c4C3=O)cc2C1=O [Example 1347, 1-(3-chlorophenyl)-N-hydroxy-6-(2-methyl-1-oxo-1,2,3,4-tetrahydroisoquinolin-7-yl)-7-oxo-4,5,6,7-tetrahydro-1H-pyrazolo[3,4-c]pyridine-3-carboxamide]
16 | 1 to 3 | 10 to 40 | Cc1nc2c(C(=O)O)nn(-c3cccc(Cl)c3)c2c(=O)n1-c1ccc2c(c1)C(=O)N(CCO)CC2 [Example 3018, 1-(3-chlorophenyl)-6-(2-(2-hydroxyethyl)-1-oxo-1,2,3,4-tetrahydroisoquinolin-7-yl)-5-methyl-7-oxo-6,7-dihydro-1H-pyrazolo[4,3-d]pyrimidine-3-carboxylic acid]
17 | 0.1 to 0.3 | > 40 | Cc1ccc(-n2nc(C(=O)NCc3cnccc3C)c3c2C(=O)N(c2ccc4c(c2)CN(CCO)CC4)CC3)cc1Cl [Example 2007, 1-(3-chloro-4-methylphenyl)-6-(2-(2-hydroxyethyl)-1,2,3,4-tetrahydroisoquinolin-7-yl)-N-((4-methylpyridin-3-yl)methyl)-7-oxo-4,5,6,7-tetrahydro-1H-pyrazolo[3,4-c]pyridine-3-carboxamide]
18 | 0.01 to 0.1 | 10 to 40 | Cc1cc(CN)cc(-n2nc(C(=O)O)c3c2C(=O)N(c2ccc4c(c2)C(=O)N(C)CC4)CC3)c1 [Example 2025, 1-(3-(aminomethyl)-5-methylphenyl)-6-(2-methyl-1-oxo-1,2,3,4-tetrahydroisoquinolin-7-yl)-7-oxo-4,5,6,7-tetrahydro-1H-pyrazolo[3,4-c]pyridine-3-carboxylic acid]
19 | 0.3 to 1 | 3 to 10 | Cc1ccncc1C(=O)NCc1nn(-c2cccc(Cl)c2)c2c(=O)n(-c3ccc4c(c3)CN(CCO)CC4)c(C)nc12 [Example 3010, N-((1-(3-chlorophenyl)-6-(2-(2-hydroxyethyl)-1,2,3,4-tetrahydroisoquinolin-7-yl)-5-methyl-7-oxo-6,7-dihydro-1H-pyrazolo[4,3-d]pyrimidin-3-yl)methyl)-4-methylnicotinamide]
20 | 1 to 3 | > 40 | CCNC(=O)c1nn(-c2cccc(Cl)c2)c2c1CCN(c1cccc(N3CCCN(C)C3=O)c1)C2=O [Example 1390, 1-(3-chlorophenyl)-N-ethyl-6-(3-(3-methyl-2-oxotetrahydropyrimidin-1(2H)-yl)phenyl)-7-oxo-4,5,6,7-tetrahydro-1H-pyrazolo[3,4-c]pyridine-3-carboxamide]
